Results from the supplement of paper PMC10307832.

Legend:
Experiment in all cases: relative viability (nuclei count vs DMSO), 5 days (fraction); higher = more cells survive
[1] = compound: C1=CC(=CC=C1NC(=S)NNC2=C(C=C(C=C2[N+](=O)[O-])C(F)(F)F)[N+](=O)[O-])F [Kobe2602] + CS(=O)(=O)CCNCc1ccc(-c2ccc3ncnc(Nc4ccc(OCc5cccc(F)c5)c(Cl)c4)c3c2)o1 [Lapatinib] (partner 2 µM)
How it was run: (§1)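 Relative viability divides the nuclei count in treated wells by that in vehicle wells. Lung cancer cell lines were seeded in 1536-well plates, dosed by pin tool the next day, and fixed and stained after 5 days in one step with final 0.05% Triton X-100, 1% formaldehyde and 1 ug/ml Hoechst. Dosing was a single drug or a fixed anchor-drug dose plus five library-drug doses (not always all listed) in √10 steps, and values are medians of duplicate plates imaged at 4×.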

[2] = compound: COc1cc2nccc(Oc3ccc(NC(=O)C4(C(=O)Nc5ccc(F)cc5)CC4)cc3)c2cc1OC [Cabozantinib] + C[C@]1(O)C[C@@H](c2nc(-c3ccc4ccc(-c5ccccc5)nc4c3)c3c(N)nccn32)C1 [Linsitinib] (partner 1 µM)
How it was run: as §1

[3] = compound: C1=CC(=CC=C1NC(=S)NNC2=C(C=C(C=C2[N+](=O)[O-])C(F)(F)F)[N+](=O)[O-])F [Kobe2602] + CC1(C)CCC(c2ccc(Cl)cc2)=C(CN2CCN(c3ccc(C(=O)NS(=O)(=O)c4ccc(N[C@H](CCN5CCOCC5)CSc5ccccc5)c(S(=O)(=O)C(F)(F)F)c4)cc3)CC2)C1 [Navitoclax] (partner 0.5 µM)
How it was run: as §1

[4] = compound: COc1cc2nccc(Oc3ccc(NC(=O)C4(C(=O)Nc5ccc(F)cc5)CC4)cc3)c2cc1OC [Cabozantinib] + CC(C)C[C@H](NC(=O)[C@H](Cc1ccccc1)NC(=O)c1cnccn1)B(O)O [Bortezomib] (partner 0.002 µM)
How it was run: as §1

Cell Line	relative viability ([1]; first compound 0.2 µM)	relative viability ([1]; first compound 0.6325 µM)	relative viability ([1]; first compound 2 µM)	relative viability ([1]; first compound 6.325 µM)	relative viability ([1]; first compound 20 µM)	relative viability ([2]; first compound 0.02 µM)	relative viability ([2]; first compound 0.06325 µM)	relative viability ([2]; first compound 0.2 µM)	relative viability ([2]; first compound 0.6325 µM)	relative viability ([2]; first compound 2 µM)	relative viability ([3]; first compound 0.2 µM)	relative viability ([3]; first compound 0.6325 µM)	relative viability ([3]; first compound 2 µM)	relative viability ([3]; first compound 6.325 µM)	relative viability ([3]; first compound 20 µM)	relative viability ([4]; first compound 0.02 µM)	relative viability ([4]; first compound 0.06325 µM)	relative viability ([4]; first compound 0.2 µM)	relative viability ([4]; first compound 0.6325 µM)	relative viability ([4]; first compound 2 µM)
HCC-366	1.05	1.16	0.963	0.979	0.968	0.772	0.649	0.703	0.637	0.554	1.07	0.98	0.832	1.06	1.06	1.06	1.13	1.1	0.953	1
LCLC-97TM1	1.05	1.01	0.817	0.965	0.893	–	0.187	0.2	0.195	0.204	0.253	0.462	0.531	0.282	0.317	–	1.02	0.653	0.967	0.96
HCC-44	1	1.05	1.01	1.03	0.954	0.807	0.795	0.726	0.64	0.573	0.989	0.998	0.928	0.963	1.02	1.01	0.968	0.877	0.946	0.943
A-427	0.995	1.02	1.01	1.03	0.953	1.12	1.1	1.08	1.1	1.13	1	0.945	0.934	0.97	0.459	1.03	0.969	1.05	0.936	0.988
